Values quoted from earlier work, collected in PMC8952239, “Injectable Biodegradable Silica Depot: Two Months of Sustained Release of the Blood Glucose Lowering Peptide, Pramlintide” (Pharmaceutics, 2022).
Bridge positions count the residues as written; N and C are the ends. Ends that are not written are not given here.

How the values were obtained:
[1] = weak acid; no reference given
Text: In this communication, we highlight a sustained delivery strategy for in vivo delivery of the synthetic peptide analogue of amylin, pramlintide acetate. As mentioned earlier, amylin is the endogenous hormone co-secreted with insulin by the pancreas for glucose metabolism in vivo. […] Such effects can be moderated either by decreasing the single dosing of preprandial ins ...

lean rats = system: lean rats
Text: (Figure 6). […] The findings for bodyweight loss mirror very well previously published data in lean rats. Roth et al. show body weight returning to baseline levels 8 days after the start of amylin treatment in an experiment assessing the effect ...

rats = system: rats
Description: In an earlier preclinical study of pramlintide in rats, the peak plasma concentration of pramlintide at 50% maximally effective gastric inhibitory dose was reported to be 15 pM. The lower dose (5 mg/kg) formulation in the present study seems to achieve this concentration level by the end of the study.

O[Si](O)(O)O [silicic acid]
pKa [1]: 9.84

amylin: endogenous hormone co-secreted with insulin by the pancreas (KCNTATCATQRLANFLVHSSNNFGAILSSTNVGSNTY; Islet amyloid polypeptide; UniProt P10997 34-70, looked up)
time after start of treatment at which body weight returned to baseline levels (lean rats; continuous subcutaneous amylin infusion over 24 days): 8 days | period with significant effects on food intake (lean rats; lean animals, minipump over 14 days): 6 days

pramlintide acetate (KCNTATCATQRLANFLVHSSNNFGPILPPTNVGSNTY-NH2; disulfide 2-7 (inferred); also: acetate salt; UniProt P10997 34-70, looked up, variant A25P S28P S29P) [synthetic analogue of amylin, adjunct to preprandial insulin therapy]
peak plasma concentration at 50% maximally effective gastric inhibitory dose (rats): 15 pM
